From US20220370461A1, “USE OF IMIDAZOPYRIMIDINE OR IMIDAZOTRIAZINE COMPOUNDS FOR PREVENTION, ALLEVIATION, OR TREATMENT OF COGNITIVE DISORDERS, OR FOR IMPROVING COGNITIVE FUNCTION” (SK BIOPHARMACEUTICALS CO., LTD., priority 2019, published 2022)

Assays:
Type in all cases: in vivo
[1] = system: rat model exhibiting cognitive ability decreased by treatment with dizocilpine; assay: Object recognition test in rat model with cognitive ability decreased by dizocilpine; details: for recognition index: P<0.01 vs negative control
Description: As an animal model of cognitive disorder, an animal model of which the cognitive ability was decreased by administering dizocilpine, a cognitive inhibitor, was used.
(§1) Male rats (Wistar, 4 weeks old, Orient Bio Co., Ltd.) were purchased and acclimatized for one week or more in an animal cage. The experimental animals were raised in a light-controlled environment (illuminated for 12 hours/nonilluminated for 12 hours) and stored and managed according to the laboratory animal care standards of the Institutional Animal Care and Use Committee (IACUC) in an environment where a temperature of 19° C. to 25° C. and a relative humidity of 30% to 70% were maintained and water and food could be freely available. The rats were stabilized for one week or more, and then used for an object recognition test. The rats were randomly divided into groups and the test was performed under illumination.
To create an animal model inducing symptoms of decreased cognitive ability, the experimental animals were treated with dizocilpine, an N-methyl-D-aspartate (NMDA) receptor inhibitor.
(§2) Dizocilpine (purchased from Sigma) was dissolved in physiological saline used as a vehicle to be freshly prepared, and subcutaneously administered at a dose of 0.1 mg/kg in a volume of 1 ml per 1 kg of rat body weight 30 minutes before training. To a control group, only physiological saline was administered.
The test compound was dissolved in 5% DMSO (dimethyl sulfoxide) in 10% Cremophor, and orally administered at doses of 0.03, 0.1, and 0.3 mg/kg in a volume of 1 ml per 1 kg of rat body weight one hour before training. To a control group, only vehicle (5% DMSO in 10% Cremophor) was administered.
Each rat was handled by the experimenter for 3 minutes or more, and box acclimation for 3 minutes was performed two times in an empty box before the experiment. After administration of vehicle or test compound intraperitoneally at a dose of 1 mg/kg one hour before training and of vehicle or dizocilpine subcutaneously 30 minutes before training, the rats were boxed for training. Training was conducted by exposing the rats in a box in which two identical plastic cylinders or stainless square pyramids were placed. One hour after training, the test was performed in a box in which one plastic cylinder and one stainless square pyramid was placed. During the test, the time during which the rat explored each object was measured. The test results were analyzed using a stainless square pyramid as a novel object in the case of rats trained in a box in which two plastic cylinders were placed and a plastic cylinder as a novel object in the case of rats trained in a box in which two stainless steel pyramids were placed.
The recognition index was calculated based on the time during which the object was explored, the data on the recognition index between groups was analyzed by one-way analysis of variance (ANOVA) and Dunnett's multiple comparison test, and then the effect was defined as significant when p<0.05. All results were expressed as mean±SEM.

[2] = system: rat model exhibiting cognitive ability decreased by treatment with dizocilpine; assay: Y-maze test in rat model with cognitive ability decreased by dizocilpine
Description: as §1, with “Committee” for “Committee (IACUC)”, “a Y-maze” for “an object recognition”
To create an animal model inducing symptoms of decreased cognitive ability, experimental animals were treated with dizocilpine, an NMDA receptor inhibitor.
as §2
The test compound was dissolved in 5% DMSO in 9.5% Cremophor, and orally administered at doses of 0.1, 0.3, and 1 mg/kg in a volume of 5 ml per 1 kg of rat body weight one hour before training. To a control group, only vehicle (5% DMSO in 9.5% Cremophor) was administered.
The rats were handled by the experimenter for 3 minutes for two days, and a Y-maze test was performed the next day. After administration of vehicle or test compound intraperitoneally one hour before test and of vehicle or dizocilpine subcutaneously 30 minutes before test, the Y-maze test was performed for 5 minutes by placing the rat at the end of one arm in the Y-maze and allowing the rat to move freely. The three arms positioned at the same angle in the Y-maze had the same length of 45 cm, the same width of 10 cm, and the same height of 20 cm. A case where a rat visited three different arms in succession was defined as an alternation behavior.
The alternation rate was determined by identifying the alternation behavior of the rat based on the visit record to each arm in the Y-maze test, the data on the alternation rate between groups was analyzed by one-way ANOVA and Dunnett's multiple comparison test, and then the effect was defined as significant when p<0.05. All results were expressed as mean±SEM.

[3] = system: rat model undergone natural forgetting; assay: Object recognition test in natural forgetting rat model; details: for Recognition index (mean ± SEM): test 24 h after training

Structure (SMILES): C[C@]12N[C@H](Cc3ccccc31)c1ccccc12 [Dizocilpine, dizocilpine, reference compound]
- Recognition index (mean ± SEM) ([1]; dizocilpine 0.1 mg/kg sc only (negative control), vehicle group 63.29 ± 1.56): 49.77 ± 1.03
- Alternation rate (mean ± SEM) ([2]; dizocilpine 0.1 mg/kg sc only (negative control), vehicle group 70.1 ± 2.8): 49.2 ± 5.3
- alternation rate ([2]; dizocilpine only (negative control), P<0.001 vs vehicle group): 49.2 ± 5.3%

Structure (SMILES): Fc1ccc(-c2cnc3nc(COc4ccccn4)cn3c2)c(C(F)(F)F)c1 [test compound, 6-[4-fluoro-2-(trifluoromethyl)phenyl]-2-(2-pyridyloxymethyl)imidazo[1,2-a]pyrimidine]
- Recognition index (mean ± SEM) ([1]; dizocilpine 0.1 mg/kg sc + test compound 0.03 mg/kg po, test 1 h after training, index = novel/total exploring time × 100): 51.95 ± 1.79
- Recognition index (mean ± SEM) ([1]; dizocilpine 0.1 mg/kg sc + test compound 0.1 mg/kg po, test 1 h after training): 57.95 ± 1.8
- Recognition index (mean ± SEM) ([1]; dizocilpine 0.1 mg/kg sc + test compound 0.3 mg/kg po, test 1 h after training): 57.62 ± 1.89
- recognition index ([1]; dizocilpine + test compound 0.1 mg/kg): 57.95±1.8%
- recognition index ([1]; dizocilpine + test compound 0.3 mg/kg): 57.62±1.89%
- Alternation rate (mean ± SEM) ([2]; dizocilpine 0.1 mg/kg sc + test compound 0.1 mg/kg po, 5 min Y-maze, actual/maximum possible alternations × 100): 67.3 ± 3.5
- Alternation rate (mean ± SEM) ([2]; dizocilpine 0.1 mg/kg sc + test compound 0.3 mg/kg po): 57.3 ± 5.7
- Alternation rate (mean ± SEM) ([2]; dizocilpine 0.1 mg/kg sc + test compound 1 mg/kg po): 49.9 ± 7.2
- alternation rate ([2]; dizocilpine + test compound 0.1 mg/kg, P<0.001 vs negative control): 67.3 ± 3.5%
- alternation rate ([2]; dizocilpine + test compound 0.3 mg/kg, tendency toward recovery): 57.3 ± 5.7%
- Recognition index (mean ± SEM) ([3]; test compound 0.1 mg/kg po, first experiment, vehicle 48.61 ± 1.87): 56.57 ± 2.37
- recognition index ([3]; test compound 0.1 mg/kg, first experiment, P<0.05 vs control): 56.57±2.37
- Recognition index (mean ± SEM) ([3]; test compound 0.3 mg/kg po, first experiment): 59.77 ± 2.64
- recognition index ([3]; test compound 0.3 mg/kg, first experiment, P<0.01 vs control): 59.77±2.64
- Recognition index (mean ± SEM) ([3]; test compound 1 mg/kg po, second experiment, vehicle 51.20 ± 2.61): 60.91 ± 2.72
- recognition index ([3]; test compound 1 mg/kg, second experiment, P<0.01 vs control): 60.91±2.72
- Recognition index (mean ± SEM) ([3]; test compound 3 mg/kg po, second experiment): 56.20 ± 2.27
- recognition index ([3]; test compound 3 mg/kg, second experiment): 56.20±2.27
